Experimental data reported in the supplement of paper PMC10307832.

Columns and labels:
Experiment in all cases: relative viability (nuclei count vs DMSO), 5 days (fraction); higher = more cells survive
[1] = compound: CCCS(=O)(=O)Nc1ccc(F)c(C(=O)c2c[nH]c3ncc(-c4ccc(Cl)cc4)cc23)c1F [Vemurafenib] + CC(=O)c1c(C)c2cnc(Nc3ccc(N4CCNCC4)cn3)nc2n(C2CCCC2)c1=O [Palbociclib] (partner 0.5 µM)
Method in brief: (§1)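 A single step with final 0.05% Triton X-100, 1% formaldehyde and 1 ug/ml Hoechst fixed the cells and stained nuclei 5 days after treatment. Lung cancer cell lines in 1536-well plates had been treated by pin tool the day after seeding with one drug alone or a fixed anchor-drug dose plus five library-drug doses (not always all listed) in √10 steps, and nuclei were counted on 4× images. Relative viability is the ratio of nuclei in treated wells to nuclei in vehicle wells, taken as the median of duplicate plates.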

Vemurafenib + Pictilisib = compound: CCCS(=O)(=O)Nc1ccc(F)c(C(=O)c2c[nH]c3ncc(-c4ccc(Cl)cc4)cc23)c1F [Vemurafenib] + CS(=O)(=O)N1CCN(Cc2cc3nc(-c4cccc5[nH]ncc45)nc(N4CCOCC4)c3s2)CC1 [Pictilisib] (partner 1 µM)
Method in brief: as §1

Alpelisib + Dasatinib = compound: Cc1nc(NC(=O)N2CCC[C@H]2C(N)=O)sc1-c1ccnc(C(C)(C)C(F)(F)F)c1 [Alpelisib] + Cc1nc(Nc2ncc(C(=O)Nc3c(C)cccc3Cl)s2)cc(N2CCN(CCO)CC2)n1 [Dasatinib] (partner 0.075 µM)
Method in brief: as §1

Alpelisib + Trametinib = compound: Cc1nc(NC(=O)N2CCC[C@H]2C(N)=O)sc1-c1ccnc(C(C)(C)C(F)(F)F)c1 [Alpelisib] + CC(=O)Nc1cccc(-n2c(=O)n(C3CC3)c(=O)c3c(Nc4ccc(I)cc4F)n(C)c(=O)c(C)c32)c1 [Trametinib] (partner 0.02 µM)
Method in brief: as §1

| Cell Line | relative viability ([1]; first compound 0.03162 µM) | relative viability ([1]; first compound 0.3162 µM) | relative viability ([1]; first compound 1 µM) | relative viability (Vemurafenib + Pictilisib; first compound 0.03162 µM) | relative viability (Vemurafenib + Pictilisib; first compound 0.1 µM) | relative viability (Vemurafenib + Pictilisib; first compound 0.3162 µM) | relative viability (Vemurafenib + Pictilisib; first compound 1 µM) | relative viability (Alpelisib + Dasatinib; first compound 0.04 µM) | relative viability (Alpelisib + Dasatinib; first compound 0.1265 µM) | relative viability (Alpelisib + Dasatinib; first compound 0.4 µM) | relative viability (Alpelisib + Dasatinib; first compound 1.265 µM) | relative viability (Alpelisib + Dasatinib; first compound 4 µM) | relative viability (Alpelisib + Trametinib; first compound 0.04 µM) | relative viability (Alpelisib + Trametinib; first compound 0.1265 µM) | relative viability (Alpelisib + Trametinib; first compound 0.4 µM) | relative viability (Alpelisib + Trametinib; first compound 1.265 µM) | relative viability (Alpelisib + Trametinib; first compound 4 µM) | relative viability ([1]; first compound 0.1 µM) |
| --- | --- | --- | --- | --- | --- | --- | --- | --- | --- | --- | --- | --- | --- | --- | --- | --- | --- | --- |
| NCI-H2170 | 0.403 | 0.396 | 0.344 | 0.305 | 0.157 | 0.254 | 0.293 | 0.535 | 0.519 | 0.506 | 0.483 | 0.396 | 0.91 | 0.857 | 0.921 | 0.666 | 0.549 | – |
| NCI-H2405 | 0.493 | – | 0.58 | 0.347 | 0.467 | – | 0.48 | 0.208 | 0.191 | 0.216 | 0.19 | 0.197 | 0.509 | 0.641 | 0.549 | 0.369 | 0.381 | 0.536 |
| SK-MES-1 | 0.314 | 0.314 | 0.318 | 0.322 | 0.192 | 0.354 | 0.347 | 0.332 | 0.334 | 0.438 | 0.17 | 0.191 | 0.59 | 0.523 | 0.534 | 0.334 | 0.385 | – |
| LCLC-103H | 0.426 | 0.501 | 0.467 | 0.585 | 0.506 | 0.584 | 0.59 | 0.45 | 0.442 | 0.468 | 0.418 | 0.359 | 0.669 | 0.693 | 0.646 | 0.567 | 0.475 | 0.448 |
| NCI-H322M | 0.444 | 0.557 | 0.475 | 0.552 | – | 0.719 | 0.572 | 0.225 | 0.223 | 0.257 | 0.253 | 0.273 | 0.516 | 0.497 | 0.49 | 0.367 | 0.411 | – |
| NCI-H23 | 0.495 | 0.498 | 0.536 | 0.531 | 0.493 | 0.476 | 0.452 | 0.818 | 0.65 | 0.702 | 0.535 | 0.418 | 0.287 | 0.354 | 0.252 | 0.286 | 0.233 | 0.479 |
| HCC-15 | 0.717 | 0.673 | 0.775 | 0.653 | 0.773 | 0.727 | 0.578 | 0.559 | 0.587 | 0.56 | 0.379 | 0.31 | 0.354 | 0.37 | 0.366 | 0.248 | 0.211 | 0.689 |
| NCI-H1437 | 0.311 | 0.311 | 0.346 | 0.445 | 0.376 | 0.512 | 0.333 | 0.368 | 0.338 | 0.358 | 0.309 | 0.342 | 0.434 | 0.492 | 0.539 | 0.382 | 0.304 | 0.307 |
| A-427 | 0.525 | – | 0.553 | 0.751 | 0.754 | 0.564 | 0.738 | 0.618 | 0.579 | 0.704 | 0.559 | 0.638 | 0.717 | 0.624 | 0.681 | 0.484 | 0.501 | 0.481 |
| NCI-H1975 | 0.553 | 0.41 | 0.382 | 0.279 | 0.278 | 0.232 | 0.332 | 0.322 | 0.309 | 0.329 | 0.176 | 0.112 | 0.364 | 0.315 | 0.317 | 0.258 | 0.177 | 0.471 |
| SK-LU-1 | 0.388 | 0.368 | 0.337 | 0.545 | 0.567 | – | 0.532 | 0.141 | 0.149 | 0.133 | 0.128 | 0.0997 | 0.474 | 0.566 | 0.53 | 0.392 | 0.345 | 0.377 |
| NCI-H520 | 0.222 | 0.221 | 0.222 | 0.283 | 0.369 | 0.372 | 0.268 | 0.184 | 0.218 | 0.153 | 0.174 | 0.149 | 0.62 | 0.574 | 0.549 | 0.491 | 0.429 | 0.188 |
| NCI-H1755 | 0.459 | 0.431 | 0.434 | 0.342 | 0.347 | 0.314 | 0.381 | 0.382 | 0.415 | 0.418 | 0.327 | 0.228 | 0.852 | 0.726 | 0.718 | 0.72 | 0.668 | 0.43 |
| CAL-12T | 0.408 | 0.444 | 0.439 | 0.407 | – | – | 0.406 | 0.34 | 0.275 | 0.483 | 0.27 | 0.232 | 0.371 | 0.259 | 0.378 | 0.266 | 0.193 | 0.251 |
| NCI-H1734 | 0.344 | 0.343 | 0.317 | 0.452 | 0.545 | 0.432 | 0.367 | 0.42 | – | 0.394 | 0.244 | 0.208 | 0.566 | 0.626 | 0.624 | 0.533 | 0.394 | 0.335 |
| NCI-H358 | 0.113 | 0.175 | 0.132 | 0.291 | – | 0.417 | 0.299 | 0.157 | 0.176 | 0.164 | 0.112 | 0.121 | 0.138 | 0.118 | 0.128 | 0.11 | 0.1 | 0.139 |
| NCI-H650 | 0.359 | 0.241 | 0.287 | 0.818 | 0.834 | 0.534 | 0.771 | 0.417 | 0.38 | 0.449 | 0.395 | 0.288 | 0.996 | 0.921 | 0.962 | 0.749 | 0.774 | 0.288 |
| BEN | 0.489 | 0.421 | 0.491 | 0.529 | 0.593 | 0.358 | 0.431 | 0.318 | 0.23 | 0.38 | 0.333 | 0.29 | 0.909 | 1.17 | 1.17 | 0.863 | 1.03 | 0.492 |
| NCI-H647 | 0.375 | 0.404 | 0.394 | 0.343 | 0.39 | – | 0.434 | 0.228 | 0.163 | 0.214 | 0.0992 | 0.123 | 0.44 | 0.473 | 0.523 | 0.348 | 0.481 | 0.434 |
| NCI-H661 | 0.406 | 0.454 | 0.403 | 0.347 | 0.351 | 0.292 | 0.433 | 0.845 | 0.745 | 0.8 | 0.569 | 0.526 | 0.618 | 0.593 | 0.645 | 0.52 | 0.462 | 0.357 |
| NCI-H1792 | 0.623 | – | 0.643 | 0.272 | 0.249 | 0.259 | 0.234 | 0.723 | 0.83 | 0.736 | 0.485 | 0.336 | 0.271 | 0.383 | 0.467 | 0.324 | 0.314 | 0.581 |
| NCI-H2347 | 0.427 | 0.44 | 0.498 | 0.328 | 0.659 | 0.754 | 0.667 | 0.298 | 0.3 | 0.316 | 0.313 | 0.273 | 0.29 | 0.285 | 0.394 | 0.244 | 0.232 | 0.429 |
| LC-2-ad | 0.449 | 0.481 | 0.442 | 0.436 | 0.396 | 0.635 | 0.432 | 0.596 | 0.448 | 0.63 | 0.23 | 0.225 | 0.902 | 0.93 | 0.968 | 0.764 | 0.738 | 0.466 |
| COR-L 105 | 0.405 | 0.328 | 0.403 | 0.467 | – | 0.406 | 0.368 | 0.301 | 0.444 | 0.346 | 0.273 | 0.26 | 0.422 | 0.458 | 0.493 | 0.37 | 0.447 | – |
| NCI-H838 | 0.213 | 0.177 | 0.343 | 0.401 | 0.445 | – | 0.626 | 0.275 | 0.375 | 0.296 | 0.228 | 0.215 | 0.419 | 0.483 | 0.515 | 0.405 | 0.421 | 0.236 |
| COR-L23 | 0.325 | 0.178 | 0.265 | 0.684 | 0.615 | 0.598 | 0.544 | 0.436 | 0.392 | 0.535 | 0.278 | 0.292 | 0.534 | 0.484 | 0.579 | 0.378 | 0.353 | 0.257 |
| EMC-BAC-2 | 0.491 | 0.407 | 0.468 | 0.46 | 0.474 | 0.454 | 0.544 | 0.31 | 0.291 | 0.28 | 0.228 | 0.208 | 0.818 | – | 0.892 | 0.529 | 0.599 | 0.416 |
| NCI-H3122 | 0.177 | 0.206 | 0.178 | 0.596 | 0.596 | 0.798 | 0.69 | 0.806 | 0.653 | 0.624 | 0.487 | 0.295 | 0.201 | 0.221 | 0.172 | 0.181 | 0.136 | 0.172 |
| NCI-H1395 | 0.553 | 0.523 | 0.611 | 0.672 | 0.613 | – | 0.521 | 0.461 | 0.376 | 0.457 | 0.356 | 0.394 | 1.07 | 1 | 1.13 | 0.817 | 0.878 | 0.613 |
| NCI-H2023 | 0.332 | 0.39 | 0.38 | 0.218 | 0.222 | 0.302 | 0.225 | 0.484 | 0.537 | 0.483 | 0.244 | 0.304 | 0.532 | 0.452 | 0.538 | 0.287 | 0.208 | 0.33 |
